# Experimental data published in patent US20110117008A1, “USE OF AVICINS TO DELIVER THERAPEUTIC AND DIAGNOSTIC AGENTS” (Research Development Foundation, priority 2007, published 2011).
# Entries after “also recorded” stand apart in the source; their conditions may differ. Structures can show the parent of a compound that is named as a salt. *1 amine or outer side, *2 acyl side, *3 side chain or, on linkers, in order; H or OH if unused. Where a SMILES comes first, the peptide text is derived from it. Bridges are numbered along the chain shown (N, C = ends). Roman numbers before positions name the chains, in order. [ ]: non-standard residue; d: D form. Actinocin(9to1) = Cc1c2oc3c(C)ccc(C(=O)[*:1])c3nc-2c(C(=O)[*:2])c(N)c1=O; NMeV = CN[C@H](C(=O)O)C(C)C; Sar = CNCC(=O)O
# Columns and labels:
# [1] = cited from earlier work
# [2] = cited from earlier work; remark: listed apart in the source
# [3] = Partition coefficient of anesthetics between octanol and water, HPLC; assay type: physicochemical; details: for Partition coefficient (octanol/water): as listed in Table 4; for Partition Coefficient: octanol/water
# full thickness pig skin = assay: Water soluble anesthetic transport in full thickness pig skin, HPLC quantification; details: for Maximum % Enhancement over control: highest enhancement of the anesthetic's permeability with F094
# Source text: (§1) HPLC was used to quantify delivered mass, and to calculate permabilities in lag times. Error bar represents mean+/−standard deviation.
# as §1
# [4] = adults with previously untreated chronic myelogenous leukemia; cited from earlier work
# [5] = test system: full thickness porcine skin; assay: 3H-estradiol transport and percutaneous absorption, full thickness porcine skin, side by side diffusion cells; assay type: in vitro ADME, pig; details: 3H-estradiol in PBS; F094 5-20 mg/ml, Avicin D and Avicin G 1 mg/ml; 24 hours
# Procedure: Each solution was loaded with 5 μCi/ml of 3H-Estradiol (Amersham TRK 322). Receiver compartments were sampled at 0.5 1, 2, 3, 6, 12, 18 and 24 hours.
# Likewise, Avicin D and Avicin G solutions contained 1 mg/ml of Avicin D and G respectively, along with PBS and 3H-estradiol (5 μCi/ml).
# (§2) Upon receipt, concentrated stock solutions were made in DMSO.
# [6] = test system: full thickness porcine skin; assay: Tritiated water transport through full thickness porcine skin, side by side diffusion cells, scintillation counting; assay type: in vitro ADME, pig; details: tritiated water in PBS, F094 10 mg/ml, Avicin D and Avicin G 1 mg/ml, 24 hours
# Procedure: In addition, it was desired to access if the known enhancer N-Methyl Pyrrolidinone (NMP) might modulate skin's water permeability when codelivered. […] Each donor compartment solution was loaded with 5 μCi/ml (1 μg/ml) of tritiated (^3H) water. Receiver compartments were sampled at 0.5, 1, 2, 3, 6, 12, 18 and 24 hours.
# Likewise, Avicin D and Avicin G solutions contained 1 mg/ml of Avicin D and G respectively, along with PBS and tritiated water (1 μg/ml, 5 μCi/ml).
# as §2
smiles,measurement,setting,value
"O=C(O)CCCc1ccc(N(CCCl)CCCl)cc1 [Chlorambucil, 4-[bis(2-chlorethyl)amino]benzenebutanoic acid]",oral / gastrointestinal absorption,"[1]; in vivo, po",rapidly and completely absorbed from the gastrointestinal tract
same,terminal half-life,[1]; plasma,~1.5 h
"CC[C@@]1(O)C(=O)OCc2c1cc1n(c2=O)Cc2cc3ccccc3nc2-1 [camptothecin, Camptothecin]",solubility in water,[2],poor water-solubility
same,storage stability,"[2]; stored at 2-8° C. in a dry, airtight, light-resistant environment",stable for at least two years
CCCNC(C)C(=O)Nc1ccccc1C (stereo not drawn) [Prilocaine HCl],Partition coefficient (octanol/water),[3],0.43
same,Partition Coefficient,[3]; 0 mg/ml F094,0.47 ± 0.03
same,Partition Coefficient,[3]; 1 mg/ml F094,0.43 ± 0.02
same,Partition Coefficient,[3]; 5 mg/ml F094,0.51 ± 0.02
same,Partition Coefficient,[3]; 10 mg/ml F094,0.50 ± 0.01
same,Permeability,full thickness pig skin,0.46 ± 0.11 × 10^−3 (cm/hr)
same,Maximum % Enhancement over control,full thickness pig skin,228%
"CC[C@]1(O)C[C@H]2CN(CCc3c([nH]c4ccccc34)[C@@](C(=O)OC)(c3cc4c(cc3OC)N(C=O)[C@H]3[C@@](O)(C(=O)OC)[C@H](OC(C)=O)[C@]5(CC)C=CCN6CC[C@]43[C@@H]65)C2)C1 [vincristine, Vincristine]",oral / gastrointestinal absorption,"[1]; in vivo, po",Unpredictable absorption
"CS(=O)(=O)OCCCCOS(C)(=O)=O [Busulfan, 1,4-butanediol dimethanesulfonate]",hematologic remission with regression or stabilization of organomegaly,[4],Approximately 90%
"O=NN(CCCl)C(=O)NC1CCCCC1 [Lomustine, 1-(2-chloro-ethyl)-3-cyclohexyl-1 nitrosourea]",radioactivity excreted in the form of degradation products,"[1]; in vivo, po",about half
"CC[C@]1(O)C[C@@H]2CN(CCc3c([nH]c4ccccc34)[C@@](C(=O)OC)(c3cc4c(cc3OC)N(C)[C@H]3[C@@](O)(C(=O)OC)[C@H](OC(C)=O)[C@]5(CC)C=CCN6CC[C@]43[C@@H]65)C2)C1 [vinblastine, Vinblastine]",plasma half-life after distribution (first),[1]; after intravenous injection,approximately 1 hours
same,plasma half-life after distribution (second),[1]; after intravenous injection,~72000 s
same,oral / gastrointestinal absorption,"[1]; in vivo, po",Unpredictable absorption
CCCCN1CCCCC1C(=O)Nc1c(C)cccc1C (stereo not drawn) [Bupivacaine HCl],Partition coefficient (octanol/water),[3],1.7
same,Partition Coefficient,[3]; 0 mg/ml F094,3.3 ± 0.4
same,Partition Coefficient,[3]; 1 mg/ml F094,3.6 ± 0.5
same,Partition Coefficient,[3]; 5 mg/ml F094,4.1 ± 0.3
same,Partition Coefficient,[3]; 10 mg/ml F094,3.5 ± 0.8
same,Permeability,full thickness pig skin,0.71 ± 0.05 × 10^−3 (cm/hr)
same,Lag time,"full thickness pig skin; female, pig",10.8 ± 1.1 h
same,Maximum % Enhancement over control,full thickness pig skin,347%
C=C[C@](C)(O)CC/C=C(\CO)C(=O)O[C@H]1[C@H](O)[C@@H](O)[C@H](O[C@@](C)(C=C)CC/C=C(\CO)C(=O)O[C@H]2C[C@]3(C(=O)O[C@@H]4O[C@H](CO)[C@@H](O)[C@H](O)[C@H]4O[C@@H]4O[C@@H](C)[C@H](O[C@@H]5O[C@@H](CO)[C@H](O)[C@H]5O)[C@@H](O[C@@H]5O[C@H](CO)[C@@H](O)[C@H](O)[C@H]5O)[C@H]4O)[C@H](O)C[C@]4(C)C(=CC[C@@H]5[C@@]6(C)CC[C@H](O[C@@H]7O[C@H](CO[C@@H]8O[C@H](C)[C@H](O)[C@H](O)[C@H]8O[C@@H]8OC[C@@H](O)[C@H](O)[C@H]8O)[C@@H](O)[C@H](O)[C@H]7NC(C)=O)C(C)(C)[C@@H]6CC[C@]54C)[C@@H]3CC2(C)C)O[C@@H]1C [Avicin D],effect on estradiol transport / estradiol permeability of skin,[5],potent enhancer of water and estradiol permeability through the skin; also recorded: increase estradiol permeability of skin as compared to Avicin G
same,effect on water transport / water permeability of skin,[6],potent enhancer of water and estradiol permeability through the skin; also recorded: increases water permeability of skin as compared to Avicin G
same,effect on water transport / water permeability of skin,[6]; listed as avicin D,differentially enhance water permeability
COc1cccc2c1C(=O)c1c(O)c3c(c(O)c1C2=O)C[C@@](O)(C(C)=O)C[C@@H]3O[C@H]1C[C@H](N)[C@H](O)[C@H](C)O1 [Daunorubicin],oral / gastrointestinal absorption,"[1]; in vivo, po",Oral absorption is poor
N.N.[Cl][Pt][Cl] [Cisplatin],oral / gastrointestinal absorption,"[1]; in vivo, po",not absorbed orally
"COc1cccc2c1C(=O)c1c(O)c3c(c(O)c1C2=O)C[C@@](O)(C(=O)CO)C[C@@H]3O[C@H]1C[C@H](N)[C@H](O)[C@H](C)O1 [Doxorubicin, 5,12-Naphthacenedione, (8s-cis)-10-[(3-amino-2,3,6-trideoxy-a-L-lyxo-hexopyranosyl)oxy]-7,8,9,10-tetrahydro-6,8,11-trihydroxy-8-(hydroxyacetyl)-1-methoxy-hydrochloride]",oral / gastrointestinal absorption,"[1]; in vivo, po",absorbed poorly
"Cc1c2oc3c(C)ccc(C(=O)N[C@@H]4C(=O)N[C@H](C(C)C)C(=O)N5CCC[C@H]5C(=O)N(C)CC(=O)N(C)[C@@H](C(C)C)C(=O)O[C@@H]4C)c3nc-2c(C(=O)N[C@@H]2C(=O)N[C@H](C(C)C)C(=O)N3CCC[C@H]3C(=O)N(C)CC(=O)N(C)[C@@H](C(C)C)C(=O)O[C@@H]2C)c(N)c1=O [Actinomycin D] (I: T[dV]P[Sar][NMeV] / II: T[dV]P[Sar][NMeV]; ester I:1-I:C, II:1-II:C; linker I:N-II:N via Actinocin(9to1))",share of the dose excreted intact into the bile,[1]; in vivo,Half of the dose
C=C[C@](C)(O)CC/C=C(\C)C(=O)O[C@H]1[C@H](O)[C@@H](O)[C@H](O[C@@](C)(C=C)CC/C=C(\CO)C(=O)O[C@H]2C[C@]3(C(=O)O[C@@H]4O[C@H](CO)[C@@H](O)[C@H](O)[C@H]4O[C@@H]4O[C@@H](C)[C@H](O[C@@H]5O[C@@H](CO)[C@H](O)[C@H]5O)[C@@H](O[C@@H]5O[C@H](CO)[C@@H](O)[C@H](O)[C@H]5O)[C@H]4O)[C@H](O)C[C@]4(C)C(=CC[C@@H]5[C@@]6(C)CC[C@H](O[C@@H]7O[C@H](CO[C@@H]8O[C@H](C)[C@H](O)[C@H](O)[C@H]8O[C@@H]8OC[C@@H](O)[C@H](O)[C@H]8O)[C@@H](O)[C@H](O)[C@H]7NC(C)=O)C(C)(C)[C@@H]6CC[C@]54C)[C@@H]3CC2(C)C)O[C@@H]1C [Avicin G],effect on water transport / water permeability of skin,[6],inhibits water transport in comparison to Avicin D; also recorded: differentially enhance water permeability
